Assay results reported in PubChem BioAssay AID1552 (Sanford-Burnham Center for Chemical Genomics, 2009).
The source made the active and inactive calls. How the calls were made is not given here.

The compounds below were run against Ubiquitin-conjugating enzyme E2 N (Homo sapiens) (UniProt P61088) (assay: NMR detection of UBE2N ligand binding – biophysical, purified protein (AID 1552)). Details: NMR binding to purified UBE2N.
Sequence of Ubiquitin-conjugating enzyme E2 N (Homo sapiens) (P61088 whole entry, looked up): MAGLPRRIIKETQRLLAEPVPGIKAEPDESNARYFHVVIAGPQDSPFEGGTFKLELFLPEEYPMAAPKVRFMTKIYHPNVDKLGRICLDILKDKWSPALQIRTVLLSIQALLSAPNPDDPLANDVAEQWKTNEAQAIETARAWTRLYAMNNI

Structure (SMILES)	Kd
CC12CN(CC#N)CC(C)(CN(CC#N)C1)C2=O	> 4 mM (inactive)
C[C@@H]1OC(O[C@H]2C(O[C@H]3CC[C@@]4(C)C(CC[C@]5(C)C4CC=C4C6CC(C)(C)CC[C@]6(C(=O)O)CC[C@]45C)[C@]3(C)CO)OC[C@H](O)[C@@H]2O)[C@H](O)[C@H](O)[C@H]1O (stereo partly drawn)	> 4 mM (inactive)
c1ccc(CCc2nc(-c3cccnc3)no2)cc1	> 4 mM (inactive)
Cc1nccc(-c2cccc(N)c2)n1	> 4 mM (inactive)
c1ccc(CCc2nc(-c3ccncc3)no2)cc1	> 4 mM (inactive)
COc1ccc2c(c1)OC[C@@H](Cc1ccc(OC)c(OC)c1)[C@@H]2O	> 4 mM (inactive)
NC(=O)C1CCN(C2CC(=O)NC2=O)CC1 (stereo not drawn)	> 4 mM (inactive)
Cc1occc1C(=O)NCc1ccncc1	> 4 mM (inactive)
NC(=O)C1CCN(c2ccc(Cl)nn2)CC1	> 4 mM (inactive)
NC(=O)CSc1ccc2nnc(-c3ccccc3)n2n1	> 4 mM (inactive)
CC(=O)c1ccc(Cc2cnc(N)s2)cc1	> 4 mM (inactive)
Cc1nn2c3ccccc3nc2n(Cc2ccccc2)c1=O	> 4 mM (inactive)
Cc1cc(NC(=O)c2cccc(S(C)(=O)=O)c2)no1	> 4 mM (inactive)
Nc1cccc(NC(=O)c2ccco2)c1	> 4 mM (inactive)
COn1c(=O)c(-c2ccco2)[n+]([O-])c2ccccc21	> 4 mM (inactive)
Nc1ccc2sccc2c1	> 4 mM (inactive)
O=S(=O)(Nc1ccc2c(c1)OCCO2)c1cccs1	> 4 mM (inactive)
COc1ccc2c(c1)OCC(Cc1ccc(OC)c(OC(C)=O)c1)C2=O (stereo not drawn)	> 4 mM (inactive)
CC(C)(C)c1cc(NC(=O)c2cccnc2)no1	> 4 mM (inactive)
NC(=O)CSc1nc2ccccc2[nH]1	> 4 mM (inactive)
CCCCCCCCCCCC[C@H](C(=O)O)[C@@H](C)C(=O)O	> 4 mM (inactive)

Structure (SMILES)	Kd
NCc1ccc(CN2CCOCC2)cc1	> 4 mM (inactive)
O=C(O[C@@H]1Cc2c(O)cc(O)cc2O[C@@H]1c1cc(O)c(O)c(O)c1)c1cc(O)c(O)c(O)c1	> 4 mM (inactive)
O=C(c1ccccc1)c1cncc(Br)c1	> 4 mM (inactive)
Nc1ccc(C2SCCS2)cc1	> 4 mM (inactive)
Cn1nnc2cc(CN)ccc21	> 4 mM (inactive)
Cc1nn(-c2ccccc2)nc1C(N)=O	> 4 mM (inactive)
Oc1ccccc1C(=S)N1CCCCCC1	> 4 mM (inactive)
O=C1c2cccnc2C(=O)N1Cc1ccco1	> 4 mM (inactive)
CN(C)Cc1nc2c([nH]1)c(=O)[nH]c(=O)n2C	> 4 mM (inactive)
OCC1=Cc2ccccc2OC1	> 4 mM (inactive)
CS(C)=C1C(=O)NC(=O)N(Cc2ccc(F)cc2)C1=O	> 4 mM (inactive)
O=C(O)/C=C/C=C/c1ccccc1	> 4 mM (inactive)
O=C(O)c1cccc(-n2cccc2)c1	> 4 mM (inactive)
COCC(=O)Nc1c(C(N)=O)oc2ccccc12	> 4 mM (inactive)
O=C(O)CCN1CCc2ccccc2C1c1ccncc1 (stereo not drawn)	> 4 mM (inactive)
CC(=O)Nc1nc(C)c(C(C)=O)s1	> 4 mM (inactive)
CC(N)C(=O)c1ccco1 (stereo not drawn)	> 4 mM (inactive)
NC12CC3CC(C1)CC(CC(=O)O)(C3)C2	> 4 mM (inactive)
O=C(O)CCC(=O)Nc1ccccn1	> 4 mM (inactive)
O=C(c1cc(-c2ccccc2)on1)N1CCCC1	> 4 mM (inactive)
COc1cc(CNC(=O)CCCC/C=C/C(C)C)ccc1O	> 4 mM (inactive)

Structure (SMILES)	Kd
CC1(C)NC(=O)N(CN2CCOCC2)C1=O	> 4 mM (inactive)
Cn1c(-c2ccccc2F)n[nH]c1=S	> 4 mM (inactive)
CNc1ccccc1C(=O)O	> 4 mM (inactive)
OCc1ccc(OC(F)(F)F)cc1	> 4 mM (inactive)
C=C1C2CC[C@@]3(C)[C@H](c4ccoc4)OC(=O)C[C@]13O[C@H]1C[C@H](OC(C)=O)C(C)(C)[C@H](CC(=O)OC)[C@@]21C	> 4 mM (inactive)
O=C(O)C1CCN(S(=O)(=O)c2cccs2)CC1	> 4 mM (inactive)
Nc1cccc(C(=O)c2ccccc2)c1	> 4 mM (inactive)
NC(=O)CSc1nc2ccccc2o1	> 4 mM (inactive)
CN(C(N)=O)C1(C)CCS(=O)(=O)C1 (stereo not drawn)	> 4 mM (inactive)
O=[n+]1c(CO)c(CO)n([O-])c2ccccc21	> 4 mM (inactive)
OCC1CCN(Cc2ccccc2)CC1	> 4 mM (inactive)
CC(C1OC(C)(C)C(O)C1O)[C@@H]1CC[C@]2(C)C3=CCC4C(C)(C)C(=O)CC[C@]4(C)C3CC[C@@]12C (stereo partly drawn)	> 4 mM (inactive)
CNc1nc(OC)nc(N2CCOCC2)n1	> 4 mM (inactive)
NC(=S)N1CCC(c2ccccc2)=N1	> 4 mM (inactive)
Oc1cccc2[nH]ccc12	> 4 mM (inactive)
COc1cc(C(=O)O[C@H]2CC[C@@]3(C)[C@@H]4CC[C@H]5[C@]6(O)C[C@H](O)[C@@]7(O)[C@@H](CN8C[C@@H](C)CC[C@H]8[C@@]7(C)O)[C@]6(O)C[C@@]53OC24O)cc(OC)c1OC	> 4 mM (inactive)
O=C(O)C(O)C(O)C(O)C(O)C(=O)O (stereo not drawn)	> 4 mM (inactive)
Clc1ccccc1OCc1nc(-c2ccncc2)no1	> 4 mM (inactive)
CCOC(=O)Cc1cc(=O)n2[nH]c(C)cc2n1	> 4 mM (inactive)
O=c1[nH]oc2ccccc12	> 4 mM (inactive)
CCCS(=O)(=O)N1CCN(c2ccccn2)CC1	> 4 mM (inactive)

Structure (SMILES)	Kd
CN1CCN(CC(=O)N2CCc3ccccc32)CC1	> 4 mM (inactive)
O=C1NC(=S)S/C1=C/c1ccncc1	> 4 mM (inactive)
NCc1ccccc1N1CCCCC1	> 4 mM (inactive)
C[N+](C)(C)CC(O)CC(=O)O (stereo not drawn)	> 4 mM (inactive)
Cn1ccc(NC(=S)NC2CCCC2)n1	> 4 mM (inactive)
NC(=O)c1ccc(N2C(=O)C=CC2=O)cc1Cl	> 4 mM (inactive)
CS(=O)(=O)NN=C1CCCCC1	> 4 mM (inactive)
Cc1cc(=O)cc(C)n1-c1ccccc1N1CCOCC1	> 4 mM (inactive)
O=C(NCc1cccs1)c1nc2ncccn2n1	> 4 mM (inactive)
O=c1[nH]cc(N=Cc2ccc(F)cc2)c(=O)[nH]1	> 4 mM (inactive)
Nc1cc(=O)[nH]c(SCC(=O)Nc2nccs2)n1	> 4 mM (inactive)
CCOC(=O)c1cc(C)[nH]n1	> 4 mM (inactive)
Oc1ccccc1N1CCCC1	> 4 mM (inactive)
CC1(C)C(=O)CC[C@@]2(C)C1C[C@@H](O)[C@@]1(C)C3=CC(=O)O[C@@H](c4ccoc4)[C@]3(C)CCC21 (stereo partly drawn)	> 4 mM (inactive)
CC(=O)c1ccc(N2C(=O)C(C(C)C)NC2=S)cc1 (stereo not drawn)	> 4 mM (inactive)
O=c1ccc2ccccc2o1	> 4 mM (inactive)
CC(=O)O[C@@H]1CC2C(C)(C)C(=O)C=C[C@]2(C)C2CC[C@]3(C)C(=CC(=O)O[C@H]3c3ccoc3)[C@@]21C (stereo partly drawn)	> 4 mM (inactive)
CC(=O)Oc1cc(OC(C)=O)c2c(c1)O[C@H](c1ccc(OC(C)=O)c(OC(C)=O)c1)[C@H](OC(C)=O)C2	> 4 mM (inactive)
CC(C)(C)NC(=O)CN1C(=O)c2ccccc2S1(=O)=O	> 4 mM (inactive)
c1ccc2[nH]c(SCc3cscn3)nc2c1	> 4 mM (inactive)
